The subject of the first assay is Huh-7. Description: Cytotoxicity against human HuH7 cells assessed as growth inhibition after 72 hrs by SRB assay. As to conditions: Homo sapiens, Huh-7, 72 h; read-out: IC50. Format: functional, cell-based. (In general: The SRB assay estimates cell density from bound dye.)
For `C[C@H](NC(=O)Cc1cc(F)cc(F)c1)C(=O)N[C@H](C(=O)OC(C)(C)C)c1ccccc1`, the IC50 is 5 µM.
On to `CCS(=O)(=O)c1ccc(OC)c(Nc2ncc(-c3cccc(-c4cc[nH]c4)c3)o2)c1`, for which the IC50 came to 1.7 µM.
For the molecule `CCOC1=CC(=O)C(C)=C([S@@+]([O-])c2ccc(C)cc2)C1=O`, the half-maximal inhibitory concentration (IC50) turned out to be 7 µM.
Consider `CCS(=O)(=O)c1ccc(OC)c(Nc2ncc(-c3cccc(-c4ccccn4)c3)o2)c1`, for which the half-inhibitory concentration (IC50) is 1.5 µM.
For the molecule `CCS(=O)(=O)c1ccc(OC)c(Nc2ncc(-c3cc(-c4ccccn4)cc(-c4ccccn4)c3)o2)c1`, the IC50 was determined as 2.8 µM.
As for `COC1=CC(=O)C(C)=C([S+]([O-])c2ccc(C)cc2)C1=O` (racemic), the half-inhibitory concentration (IC50) is 5.5 µM.

A further assay relates to Hep 3B2. Description: Cytotoxicity against human Hep3B cells assessed as growth inhibition after 72 hrs by SRB assay. Format: functional, cell-based. Particulars: Homo sapiens, Hep3B, 72 h; read-out: IC50.
`C[C@H](NC(=O)Cc1cc(F)cc(F)c1)C(=O)N[C@H](C(=O)OC(C)(C)C)c1ccccc1`: the IC50 turned out to be 5 µM.
`CCS(=O)(=O)c1ccc(OC)c(Nc2ncc(-c3cccc(-c4cc[nH]c4)c3)o2)c1`: the IC50 came to 2.1 µM.
With `CCOC1=CC(=O)C(C)=C([S@@+]([O-])c2ccc(C)cc2)C1=O`, the concentration for half-maximal inhibition (IC50) amounted to 12 µM.
Still for that read-out and setting: the figure for `CCS(=O)(=O)c1ccc(OC)c(Nc2ncc(-c3cccc(-c4ccccn4)c3)o2)c1` is 0.7 µM; for `CCS(=O)(=O)c1ccc(OC)c(Nc2ncc(-c3cc(-c4ccccn4)cc(-c4ccccn4)c3)o2)c1` it is 2 µM; for `COC1=CC(=O)C(C)=C([S+]([O-])c2ccc(C)cc2)C1=O` (racemic) it is 4.3 µM.

In the next assay the test system is Mahlavu. Put plainly: Cytotoxicity against human Mahlavu cells assessed as growth inhibition after 72 hrs by SRB assay. The assay is classed as functional, cell-based. Particulars: Homo sapiens, Mahlavu, 72 h; read-out: IC50.
For the molecule `C[C@H](NC(=O)Cc1cc(F)cc(F)c1)C(=O)N[C@H](C(=O)OC(C)(C)C)c1ccccc1`, the IC50 was 5 µM.
As for `CCS(=O)(=O)c1ccc(OC)c(Nc2ncc(-c3cccc(-c4cc[nH]c4)c3)o2)c1`, the IC50 was determined as 0.8 µM.
On to `CCOC1=CC(=O)C(C)=C([S@@+]([O-])c2ccc(C)cc2)C1=O`, for which the half-maximal inhibitory concentration (IC50) came to 18.3 µM.
Regarding `CCS(=O)(=O)c1ccc(OC)c(Nc2ncc(-c3cccc(-c4ccccn4)c3)o2)c1`, the IC50 turned out to be 1.2 µM.
`CCS(=O)(=O)c1ccc(OC)c(Nc2ncc(-c3cc(-c4ccccn4)cc(-c4ccccn4)c3)o2)c1`: the IC50 worked out at 3 µM.
Still for that read-out and setting: with `COC1=CC(=O)C(C)=C([S+]([O-])c2ccc(C)cc2)C1=O` (racemic) the figure was 11.6 µM.

The next assay concerns SNU-475. Description: Cytotoxicity against human SNU475 cells assessed as growth inhibition after 72 hrs by SRB assay. Particulars: Homo sapiens, SNU-475, 72 h; read-out: IC50. The assay is classed as functional, cell-based.
Turning to `C[C@H](NC(=O)Cc1cc(F)cc(F)c1)C(=O)N[C@H](C(=O)OC(C)(C)C)c1ccccc1`, the half-inhibitory concentration (IC50) turned out to be 0.6 µM.
Turning to `CCOC1=CC(=O)C(C)=C([S@@+]([O-])c2ccc(C)cc2)C1=O`, the IC50 turned out to be 5.5 µM.
On the same count and under the same terms, the figure for `COC1=CC(=O)C(C)=C([S+]([O-])c2ccc(C)cc2)C1=O` (racemic) is 6.1 µM.

For another assay, the system named is Huh-7. Description: Disruption of cancer stem cell subpopulation of human HuH7 cells assessed as aggressiveness factor at IC100 after 72 hrs by flow cytometric method. The assay is classed as functional.
Conditions: not given
Regarding `C[C@H](NC(=O)Cc1cc(F)cc(F)c1)C(=O)N[C@H](C(=O)OC(C)(C)C)c1ccccc1`, the “fold change (FC)” value worked out at 0.8.
Take `CCS(=O)(=O)c1ccc(OC)c(Nc2ncc(-c3cccc(-c4cc[nH]c4)c3)o2)c1`: the “fold change (FC)” value is given as 2.3.
On to `CCOC1=CC(=O)C(C)=C([S@@+]([O-])c2ccc(C)cc2)C1=O`, for which the “fold change (FC)” value came out at 1.2.
On to `CCS(=O)(=O)c1ccc(OC)c(Nc2ncc(-c3cccc(-c4ccccn4)c3)o2)c1`, for which the “fold change (FC)” value is given as 1.7.
With `CCS(=O)(=O)c1ccc(OC)c(Nc2ncc(-c3cc(-c4ccccn4)cc(-c4ccccn4)c3)o2)c1`, the “fold change (FC)” value was determined as 2.3.
As to `COC1=CC(=O)C(C)=C([S+]([O-])c2ccc(C)cc2)C1=O` (racemic), the “fold change (FC)” value is listed as 1.3.

A further assay concerns Hep 3B2. Description: Disruption of cancer stem cell subpopulation of human Hep3B cells assessed as aggressiveness factor at IC100 after 72 hrs by flow cytometric method. The assay is classed as functional.
Conditions: not given
On the technique in general: A flow cytometer gives signals particle by particle.
Turning to `C[C@H](NC(=O)Cc1cc(F)cc(F)c1)C(=O)N[C@H](C(=O)OC(C)(C)C)c1ccccc1`, the “fold change (FC)” value turned out to be 0.7.
In the case of `CCS(=O)(=O)c1ccc(OC)c(Nc2ncc(-c3cccc(-c4cc[nH]c4)c3)o2)c1`, the “fold change (FC)” value is reported as 2.1.
For `CCOC1=CC(=O)C(C)=C([S@@+]([O-])c2ccc(C)cc2)C1=O`, the “fold change (FC)” value turned out to be 1.
Still for that read-out and setting: with `CCS(=O)(=O)c1ccc(OC)c(Nc2ncc(-c3cccc(-c4ccccn4)c3)o2)c1` the figure was 1.7; with `CCS(=O)(=O)c1ccc(OC)c(Nc2ncc(-c3cc(-c4ccccn4)cc(-c4ccccn4)c3)o2)c1`, 2.9; with `COC1=CC(=O)C(C)=C([S+]([O-])c2ccc(C)cc2)C1=O` (racemic), 1.1.

In a further assay the test system is Mahlavu. Description: Disruption of cancer stem cell subpopulation of human Mahlavu cells assessed as aggressiveness factor at IC100 after 72 hrs by flow cytometric method. Format: functional.
Conditions: not given
Consider `C[C@H](NC(=O)Cc1cc(F)cc(F)c1)C(=O)N[C@H](C(=O)OC(C)(C)C)c1ccccc1`, for which the “fold change (FC)” value turned out to be 0.2.
With `CCOC1=CC(=O)C(C)=C([S@@+]([O-])c2ccc(C)cc2)C1=O`, the “fold change (FC)” value came to 1.7.
Consider `COC1=CC(=O)C(C)=C([S+]([O-])c2ccc(C)cc2)C1=O` (racemic), for which the “fold change (FC)” value worked out at 2.2.

In a further assay the test system is SNU-475. Description: Disruption of cancer stem cell subpopulation of human SNU475 cells assessed as aggressiveness factor at IC100 after 72 hrs by flow cytometric method. The assay is classed as functional.
Conditions: not given
For `C[C@H](NC(=O)Cc1cc(F)cc(F)c1)C(=O)N[C@H](C(=O)OC(C)(C)C)c1ccccc1`, the “fold change (FC)” value came out at 0.5.
As for `CCOC1=CC(=O)C(C)=C([S@@+]([O-])c2ccc(C)cc2)C1=O`, the “fold change (FC)” value amounted to 0.5.
Same read-out and setting: with `COC1=CC(=O)C(C)=C([S+]([O-])c2ccc(C)cc2)C1=O` (racemic) the figure was 2.

A further assay relates to Huh-7. Put plainly: Disruption of cancer stem cell subpopulation of human HuH7 cells assessed as effect on CD133 levels at IC100 after 72 hrs by flow cytometric method (reference value: 0 to 0.6%). The assay is classed as functional.
Conditions: not given
In the case of `CCS(=O)(=O)c1ccc(OC)c(Nc2ncc(-c3cccc(-c4cc[nH]c4)c3)o2)c1`, the Activity came out at 0.9%.
Turning to `CCOC1=CC(=O)C(C)=C([S@@+]([O-])c2ccc(C)cc2)C1=O`, the Activity turned out to be 0.3%.
Same read-out and setting: the figure for `CCS(=O)(=O)c1ccc(OC)c(Nc2ncc(-c3cccc(-c4ccccn4)c3)o2)c1` is 0.1%.
On to `CCS(=O)(=O)c1ccc(OC)c(Nc2ncc(-c3cc(-c4ccccn4)cc(-c4ccccn4)c3)o2)c1`, for which the Activity is 0.4%.
Still for that read-out and setting: the figure for `COC1=CC(=O)C(C)=C([S+]([O-])c2ccc(C)cc2)C1=O` (racemic) is 0.8%.

The test system of a further assay is Huh-7. Description: Disruption of cancer stem cell subpopulation of human HuH7 cells assessed as effect on EpCAM levels at IC100 after 72 hrs by flow cytometric method (reference value: 13.7 to 33%). The assay is classed as functional.
Conditions: not given
`C[C@H](NC(=O)Cc1cc(F)cc(F)c1)C(=O)N[C@H](C(=O)OC(C)(C)C)c1ccccc1`: the Activity is 10.2 - 26.7%.
As to `CCS(=O)(=O)c1ccc(OC)c(Nc2ncc(-c3cccc(-c4cc[nH]c4)c3)o2)c1`, the Activity was 32.1%.
On to `CCOC1=CC(=O)C(C)=C([S@@+]([O-])c2ccc(C)cc2)C1=O`, for which the Activity was 40.6%.
On to `CCS(=O)(=O)c1ccc(OC)c(Nc2ncc(-c3cccc(-c4ccccn4)c3)o2)c1`, for which the Activity worked out at 23.9%.
As to `CCS(=O)(=O)c1ccc(OC)c(Nc2ncc(-c3cc(-c4ccccn4)cc(-c4ccccn4)c3)o2)c1`, the Activity is reported as 31.6%.
Regarding `COC1=CC(=O)C(C)=C([S+]([O-])c2ccc(C)cc2)C1=O` (racemic), the Activity came to 41.3%.

In another assay the test system is Hep 3B2. Description: Disruption of cancer stem cell subpopulation of human Hep3B cells assessed as effect on CD133 levels at IC100 after 72 hrs by flow cytometric method (reference value: 0 to 0.6%). Format: functional.
Conditions: not given
Turning to `C[C@H](NC(=O)Cc1cc(F)cc(F)c1)C(=O)N[C@H](C(=O)OC(C)(C)C)c1ccccc1`, the Activity was 0%.
Same read-out and setting: with `CCOC1=CC(=O)C(C)=C([S@@+]([O-])c2ccc(C)cc2)C1=O` the figure was 0%; with `COC1=CC(=O)C(C)=C([S+]([O-])c2ccc(C)cc2)C1=O` (racemic), 0%.

The next assay has as its system Hep 3B2. Description: Disruption of cancer stem cell subpopulation of human Hep3B cells assessed as effect on EpCAM levels at IC100 after 72 hrs by flow cytometric method (reference value: 0 to 0.6%). The assay is classed as functional.
Conditions: not given
Consider `C[C@H](NC(=O)Cc1cc(F)cc(F)c1)C(=O)N[C@H](C(=O)OC(C)(C)C)c1ccccc1`, for which the Activity came out at 68.8%.
In the case of `CCOC1=CC(=O)C(C)=C([S@@+]([O-])c2ccc(C)cc2)C1=O`, the Activity came out at 80.1%.
As for `COC1=CC(=O)C(C)=C([S+]([O-])c2ccc(C)cc2)C1=O` (racemic), the Activity was 84.9%.

The next assay relates to Mahlavu. Description: Disruption of cancer stem cell subpopulation of human Mahlavu cells assessed as effect on CD90 levels at IC100 after 72 hrs by flow cytometric method (reference value: 0.6%).
Conditions: not given
The assay is classed as functional.
With `C[C@H](NC(=O)Cc1cc(F)cc(F)c1)C(=O)N[C@H](C(=O)OC(C)(C)C)c1ccccc1`, the Activity came to 0.1%.
With `CCOC1=CC(=O)C(C)=C([S@@+]([O-])c2ccc(C)cc2)C1=O`, the Activity turned out to be 1%.
Still for that read-out and setting: with `COC1=CC(=O)C(C)=C([S+]([O-])c2ccc(C)cc2)C1=O` (racemic) the figure was 1.3%.

Another assay relates to SNU-475. Put plainly: Disruption of cancer stem cell subpopulation of human SNU475 cells assessed as effect on CD90 levels at IC100 after 72 hrs by flow cytometric method (reference value: 0.2%).
Conditions: not given
The assay is classed as functional.
For the molecule `C[C@H](NC(=O)Cc1cc(F)cc(F)c1)C(=O)N[C@H](C(=O)OC(C)(C)C)c1ccccc1`, the Activity stood at 0.1%.
The same measure, in the same setting: with `CCOC1=CC(=O)C(C)=C([S@@+]([O-])c2ccc(C)cc2)C1=O` the figure was 0.1%; with `COC1=CC(=O)C(C)=C([S+]([O-])c2ccc(C)cc2)C1=O` (racemic), 0.4%.

The target in the next assay is Vascular endothelial growth factor receptor 2 (Homo sapiens, UniProt P35968). Description: Inhibition of N-terminal GST-fused human VEGFR2 C-terminal fragment expressed in Sf9 insect cells using poly(Glu:Tyr) 4:1 as substrate. Format: cell-based.
Sequence of Vascular endothelial growth factor receptor 2 (P35968 whole entry, the tested form may be a part): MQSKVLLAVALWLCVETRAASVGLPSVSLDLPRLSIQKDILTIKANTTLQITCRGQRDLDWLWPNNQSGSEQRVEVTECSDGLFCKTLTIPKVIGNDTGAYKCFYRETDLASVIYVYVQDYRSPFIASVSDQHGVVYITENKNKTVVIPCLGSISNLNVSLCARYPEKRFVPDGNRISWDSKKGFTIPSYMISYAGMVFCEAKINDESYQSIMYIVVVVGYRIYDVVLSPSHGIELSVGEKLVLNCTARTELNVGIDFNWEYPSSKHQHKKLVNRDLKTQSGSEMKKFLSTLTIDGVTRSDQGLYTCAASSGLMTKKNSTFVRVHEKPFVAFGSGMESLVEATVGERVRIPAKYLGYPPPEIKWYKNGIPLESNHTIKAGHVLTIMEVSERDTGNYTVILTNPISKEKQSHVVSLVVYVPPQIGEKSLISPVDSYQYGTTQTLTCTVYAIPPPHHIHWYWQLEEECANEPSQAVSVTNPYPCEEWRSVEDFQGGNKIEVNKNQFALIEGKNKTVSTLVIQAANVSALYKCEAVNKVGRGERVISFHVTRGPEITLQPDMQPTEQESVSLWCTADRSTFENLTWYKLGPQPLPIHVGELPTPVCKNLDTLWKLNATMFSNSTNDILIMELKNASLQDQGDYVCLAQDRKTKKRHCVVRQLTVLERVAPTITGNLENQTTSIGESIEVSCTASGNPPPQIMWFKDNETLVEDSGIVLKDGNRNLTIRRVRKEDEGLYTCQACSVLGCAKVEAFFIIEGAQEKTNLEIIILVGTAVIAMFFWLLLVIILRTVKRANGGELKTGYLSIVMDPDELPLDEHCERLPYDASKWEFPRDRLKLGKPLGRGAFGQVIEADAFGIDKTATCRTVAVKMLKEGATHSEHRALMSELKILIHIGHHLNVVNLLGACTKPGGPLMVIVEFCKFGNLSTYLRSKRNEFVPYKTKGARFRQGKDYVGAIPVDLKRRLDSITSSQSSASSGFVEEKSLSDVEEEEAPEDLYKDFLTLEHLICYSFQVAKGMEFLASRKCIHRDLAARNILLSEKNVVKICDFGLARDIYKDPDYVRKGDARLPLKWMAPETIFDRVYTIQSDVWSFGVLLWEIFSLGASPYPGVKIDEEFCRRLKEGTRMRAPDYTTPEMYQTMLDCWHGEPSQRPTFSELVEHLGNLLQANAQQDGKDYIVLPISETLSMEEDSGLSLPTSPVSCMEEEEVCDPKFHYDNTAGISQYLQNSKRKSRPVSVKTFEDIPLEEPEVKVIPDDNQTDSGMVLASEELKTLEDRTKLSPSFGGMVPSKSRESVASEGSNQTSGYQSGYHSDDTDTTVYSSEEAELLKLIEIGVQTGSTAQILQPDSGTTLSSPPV
Conditions: not given
In the case of `CCS(=O)(=O)c1ccc(OC)c(Nc2ncc(-c3cccc(-c4cc[nH]c4)c3)o2)c1`, inhibition was half-maximal at 0.018 µM (IC50).

For orientation: IC50 means the concentration at which inhibition is half-maximal.

The record behind these values is ChEMBL document CHEMBL4138043, “Quinoides and VEGFR2 TKIs influence the fate of hepatocellular carcinoma and its cancer stem cells” (Medchemcomm, 2017).
